One assay deals with IRE1α-XBP1 signaling. Put plainly: Xbp1s and Ptges mRNA in peritoneal leukocytes after acetic acid injection (RT-qPCR). Type of assay: in vivo, C57BL/6J mice. The note with it: i.p. 6 hours and 30 minutes before 0.9% v/v acetic acid; KIRA6 25 mg/kg, MKC8866 20 mg/kg; vs vehicle. Here is the method:
Total RNA was isolated using RNeasy Mini kit or QIAzol lysis reagent (Qiagen) according to the manufacturer's instructions. RNA (0.1-1 μg) was reverse-transcribed to generate cDNA using the qScript cDNA synthesis kit (Quantabio). Quantitative RT-PCR was performed using PerfeCTa SYBR green fastmix (Quantabio) and TaqMan Universal PCR master mix (Life Technologies) on a QuantStudio 6 Flex real-time PCR system (Applied Biosystems). Normalized gene expression was calculated by comparative threshold cycle method using ACTB or Actb as a control. Xbp1 splicing assays were performed as described by Lee et al. (Proc Natl Acad Sci USA 100, 9946 (Aug. 19, 2003)). PCR products were separated by electrophoresis through a 2.5% agarose gel and visualized by ethidium bromide staining. Primers used in this study are described in Table 9.
(§1) To determine if pharmacological disabling of IRE1α-XBP1 signaling could reduce inflammatory visceral pain, two commercially available inhibitors of IRE1α were employed: the kinase domain-specific inhibitor KIRA6 (25 mg/kg) and the RNAse domain-specific inhibitor MKC8866 (20 mg/kg).
(§2) These inhibitors were independently administered intraperitoneally to C57BL/6J mice 6 hours and 30 minutes before acetic acid injection, and writhing behaviors were recorded for 30 minutes.
In general terms: Real-time PCR tracks product formation cycle by cycle.

Assay [1] has as its system C57BL/6J mice. Put plainly: Acetic acid-induced writhing model of inflammatory visceral pain. It is filed as in vivo. The conditions noted are these: i.p. 6 hours and 30 minutes before 0.9% v/v acetic acid (5 ml/kg); recorded for 30 minutes; KIRA6 25 mg/kg, MKC8866 20 mg/kg, Celecoxib 20 mg/kg; vs vehicle. How it is done:
(§3) All behavioral measurements were performed by a blinded observer before and after surgery (postoperative days 1-21) or acetic acid intraperitoneal injection (15-30 min). Animals were acclimated to the testing devices and/or places for 3 days, and baseline measurements were taken for at least 4 consecutive days before the surgery or acetic acid.
Writhing spontaneous pain behaviors were evaluated after intraperitoneal injection of 0.9% acetic acid (v/v, 5 ml/kg). The number of writhing responses was quantified immediately after acetic acid injection for 30 min in 5 min intervals by an observer blinded to genotype. Writings induced acetic acid are overt stretching behaviors indicative of abdominal pain, a phenomenon that is dependent upon mPGES-1 and PGE2 (Kamei et al. J Biol Chem 279, 33684 (Aug. 6, 2004); Trebino et al. Proc Nat Acad Sci USA 100, 9044 (Jul. 22, 2003)).
as §1, §2

The subject of assay [2] is C57BL/6J mice. Put plainly: Paw incision model of post-surgical pain, behavioral tests. It is filed as in vivo. The conditions noted are these: i.p. 6 hours and 30 minutes before paw incision, KIRA6 25 mg/kg, MKC8866 20 mg/kg; for flinching activity after paw incision / grimace score post-surgery / guarding score post-surgery / hind paw weight bearing distribution after paw incision / mechanical hypersensitivity (mechanical threshold) after paw incision / rearing activity after paw incision: Celecoxib 20 mg/kg, vs vehicle; for post-operative pain behaviors: figure legend. How it is done: Plantar incision surgery was performed as described by Pogatzki & Raja (Anesthesiology 99, 1023 (October 2003)). Briefly, mice were anesthetized with isoflurane in oxygen (4% induction, 1.5%-2% for maintenance) and the right hind paw was aseptically cleaned with 10% povidone-iodine solution. Then, a 5 mm incision was made in the glabrous hind-paw skin from the heel to the base of the toes using a No. 11 scalpel and sterile technique. The underlying muscle and ligaments were elevated with a curved forceps and stretched for 6-8 seconds, without incising them. The incision was closed using 5.0 nylon mattress sutures.
as §3
Mice were placed in individual acrylic chambers on an elevated mesh floor for 30-45 min before testing. Two spontaneous pain-relate behaviors were evaluated, rearings and paw flinches. Following the acclimatization period, the number of total vertical rearings and paw flinches were quantified during a 2-min period. Vertical rearings were defined as the number of times that the animal stood supporting its weight on both hind limbs. Vertical rearings are a normal behavior in rodents, thus a reduction of this behavior is indicative of a protective way to prevent pain due to movement, which mimics pain induced by surgeries in humans. Spontaneous flinching of the affected paw was quantified every time that the animal shacked the affected paw without any stimulation. Flinches of the injured paw is a pain-related behavior that is indicative of breakthrough pain, similar to intense spontaneous spike of pain in humans with postoperative pain.
Mechanical hypersensitivity was assessed after quantification of vertical rearings and spontaneous flinching. Mechanical withdrawal thresholds were calculated using the up-down method and applying force with calibrated Von Frey filaments (0.07-g, 0.17-g, 0.40-g, 0.60-g, 1.04-g, 1.37-g, and 2.0-g, Stoeling, Wood Dale, Ill., USA) to the plantar aspect of the paw for 5 seconds. Paw withdraws or flinching in response to a given applied force was noted as a positive response.
Hind paw weight bearing distribution was determined using an incapacitance tester apparatus (Stoelting, Ill., version 5.64). This is a test for non-reflexive behaviors that represents a spontaneous pain-related behavior that mimics postoperative pain behaviors in humans (protection of the surgery site from normal activities). Before surgery, animals were habituated for at least 3 days to the apparatus, in which animals stand with each hind paw resting on individual weight plates inside an acrylic chamber. The apparatus measures the body weight distributed between the two hind paws over a 3 second period and provides the average measurement. The average value of each hind paw was used to determine the weight distribution ratio (ispsilateral/contralateral side). A ratio below one indicates a greater weight bearing on the contralateral paw and was therefore considered as a pain-related behavior.
To determine whether pharmacological targeting of IRE1α could also modulate post-surgical pain. KIRA6 (FIG. 9A-9F) or MKC8866 (FIG. 10) was administered i.p. 6 hours and 30 minutes prior to paw incision surgery, and pain responses were monitored thereafter. […] Consistent with our results using conditional IRE1α-deficient mice, mechanical hypersensitivity remained unaltered upon administration of IRE1α inhibitors (FIGS. 9F and 10F). As a positive control, we administered equimolar amounts (20 mg/kg) of Celecoxib following the same scheme and route described above. […]

Entries after “also recorded” stand apart in the source; their conditions may differ.

Regarding `COc1cc2c(C)c(CC(=O)N3CCOCC3)c(=O)oc2c(C=O)c1O` [MKC8866], in the assay with IRE1α-XBP1 signaling, the “Ptges expression in peritoneal leukocytes” value is “significantly reduced” and the “Xbp1s expression in peritoneal leukocytes” value is listed as “significantly reduced”. Also, the “number of writhings after acetic acid injection” value in the assay with C57BL/6J mice [1] was “reduced; also recorded: decreased”. In the assay with C57BL/6J mice [2], the “flinching activity after paw incision” value is given as “reduced”, the grimace score post-surgery result is recorded as “significantly reduced”, the guarding score post-surgery result is listed as “significantly reduced” and the “hind paw weight bearing distribution after paw incision” value was “more balanced”. In the assay with C57BL/6J mice [2], the “mechanical hypersensitivity (mechanical threshold) after paw incision” value is reported as “unaltered”, the “rearing activity after paw incision” value is listed as “unchanged” and the post-operative pain behaviors entry was “reduces”.

With `CC(C)(C)c1nc(-c2ccc(NC(=O)Nc3cccc(C(F)(F)F)c3)c3ccccc23)c2c(N)nccn12` [KIRA6], in the assay on IRE1α-XBP1 signaling, the “Ptges expression in peritoneal leukocytes” value is reported as “significantly reduced” and the “Xbp1s expression in peritoneal leukocytes” value is listed as “significantly reduced”. In addition, the “number of writhings after acetic acid injection” value with C57BL/6J mice [1] was “reduced; also recorded: decreased”. In addition, in the assay with C57BL/6J mice [2], the “flinching activity after paw incision” value is given as “reduced”, the grimace score post-surgery entry is “significantly reduced”, the guarding score post-surgery result was “significantly reduced” and the “hind paw weight bearing distribution after paw incision” value is listed as “more balanced”. Also, in the assay on C57BL/6J mice [2], the “mechanical hypersensitivity (mechanical threshold) after paw incision” value is recorded as “unaltered”, the “rearing activity after paw incision” value is listed as “unchanged” and the post-operative pain behaviors result was “reduces”.

For the origin of these results see patent US20220160705A1, “METHODS FOR CONTROLLING PROSTAGLANDIN-MEDIATED BIOLOGICAL PROCESSES” (Cornell University, priority 2019, published 2022).
